From patent US8232406B2, “c-MET protein kinase inhibitors” (Vertex Pharmaceuticals Incorporated, priority 2006, dated 2012)

Each molecule was assayed against c-MET (Homo sapiens, UniProt P08581) (assay: Ki determination for the inhibition of c-MET (standard radiometric 33P-ATP kinase assay, polyE4Y substrate)). Conditions: 1.0 nM c-Met, 35 μM ATP, 0.5 mg/mL polyE4Y, 20 min; competitive tight-binding fit.
Assay type: biochemical
Outline: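 Radiometric assay of 33P transfer from 33P-ATP (35 μM) to polyE4Y (0.5 mg/mL) by 1.0 nM c-Met in 100 mM HEPES pH 7.5, 10 mM MgCl2, 25 mM NaCl, 0.01% BSA, 1 mM DTT. TCA-quenched after 20 min, filter-captured, scintillation-counted; Ki fitted to a competitive tight-binding model.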

Sequence of c-MET (P08581 25-1390): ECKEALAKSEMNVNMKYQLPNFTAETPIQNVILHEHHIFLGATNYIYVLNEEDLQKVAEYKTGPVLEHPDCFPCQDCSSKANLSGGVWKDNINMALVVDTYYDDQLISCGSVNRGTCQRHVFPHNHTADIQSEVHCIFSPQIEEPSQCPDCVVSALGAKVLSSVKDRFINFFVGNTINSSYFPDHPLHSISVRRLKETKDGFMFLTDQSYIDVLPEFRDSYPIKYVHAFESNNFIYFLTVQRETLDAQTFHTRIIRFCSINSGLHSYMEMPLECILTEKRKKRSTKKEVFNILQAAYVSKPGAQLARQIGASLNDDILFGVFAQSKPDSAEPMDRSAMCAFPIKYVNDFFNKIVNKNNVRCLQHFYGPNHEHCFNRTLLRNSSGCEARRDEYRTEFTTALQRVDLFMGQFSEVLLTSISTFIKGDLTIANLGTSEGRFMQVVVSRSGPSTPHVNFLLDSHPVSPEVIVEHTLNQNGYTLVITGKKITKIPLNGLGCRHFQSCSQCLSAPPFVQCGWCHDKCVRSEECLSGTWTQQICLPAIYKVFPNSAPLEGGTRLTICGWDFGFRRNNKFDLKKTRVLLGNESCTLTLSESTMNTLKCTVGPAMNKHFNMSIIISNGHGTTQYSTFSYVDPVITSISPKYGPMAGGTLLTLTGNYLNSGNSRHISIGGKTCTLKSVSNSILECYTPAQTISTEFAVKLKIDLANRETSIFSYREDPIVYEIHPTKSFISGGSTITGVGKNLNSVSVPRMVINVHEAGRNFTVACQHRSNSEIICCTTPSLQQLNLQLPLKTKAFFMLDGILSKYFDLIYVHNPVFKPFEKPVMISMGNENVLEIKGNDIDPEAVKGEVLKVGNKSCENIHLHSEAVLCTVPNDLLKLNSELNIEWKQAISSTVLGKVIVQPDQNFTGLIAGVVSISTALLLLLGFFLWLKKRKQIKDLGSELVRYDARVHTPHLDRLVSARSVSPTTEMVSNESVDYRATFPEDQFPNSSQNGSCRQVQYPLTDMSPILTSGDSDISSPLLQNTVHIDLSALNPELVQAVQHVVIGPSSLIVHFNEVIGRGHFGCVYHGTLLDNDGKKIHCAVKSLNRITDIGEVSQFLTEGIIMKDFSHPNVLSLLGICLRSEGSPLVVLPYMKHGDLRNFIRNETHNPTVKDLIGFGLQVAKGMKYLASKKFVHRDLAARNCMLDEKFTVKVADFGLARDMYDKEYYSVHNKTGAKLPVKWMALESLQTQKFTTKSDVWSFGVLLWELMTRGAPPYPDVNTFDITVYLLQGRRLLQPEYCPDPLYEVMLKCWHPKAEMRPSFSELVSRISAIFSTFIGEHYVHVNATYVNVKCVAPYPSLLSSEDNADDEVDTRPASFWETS

`CC(=O)Nc1ccc(-c2cnc(N)c(-c3nnnn3-c3cccc(Cl)c3F)c2)cc1` [I-A-584] and `CC(=O)Nc1ccc(-c2cnc(N)c(-c3nnnn3-c3cccc(F)c3F)c2)cc1` [I-A-138] cannot be ordered by Ki: ≤ 100 nM for the first, ≤ 100 nM for the second.

`Cc1c(F)cccc1-n1nnnc1-c1cc(-c2ccc(CN3CCCC3)cc2)cnc1N` [I-A-598] and `Nc1ncc(-c2ccc(CN3CCCC3)cc2)cc1-c1nnnn1-c1cccc(F)c1F` [I-A-67] cannot be ordered by Ki: 100 to 1000 nM for the first, ≤ 100 nM for the second.

`CC(=O)Nc1cccc(-c2cnc(N)c(-c3nnnn3-c3cccc(F)c3C)c2)c1` [I-A-564] and `CC(=O)Nc1cccc(-c2cnc(N)c(-c3nnnn3-c3cccc(F)c3F)c2)c1` [I-A-139] cannot be ordered by Ki: 100 to 1000 nM for the first, ≤ 100 nM for the second.

`Nc1ncc(-c2ccc(S(N)(=O)=O)s2)cc1-c1nnnn1-c1cccc(F)c1F` [I-A-187] and `Nc1ncc(-c2cncs2)cc1-c1nnnn1-c1cccc(F)c1F` [I-A-540] cannot be ordered by Ki: ≤ 100 nM for the first, ≤ 100 nM for the second.

`Cc1c(F)cccc1-n1nnnc1-c1cc(-c2ccc(CN(C)C)cc2)cnc1N` [I-A-577] and `CN(C)Cc1ccc(-c2cnc(N)c(-c3nnnn3-c3cccc(F)c3F)c2)cc1` [I-A-63] cannot be ordered by Ki: 100 to 1000 nM for the first, ≤ 100 nM for the second.

`Nc1ncc(-c2ccc(N3CCCC3)nc2)cc1-c1nnnn1-c1cccc(F)c1F` [I-A-64] and `Nc1ncc(-c2ccc(CN3CCCC3)c(O)c2)cc1-c1nnnn1-c1cccc(F)c1F` [I-A-391] cannot be ordered by Ki: ≤ 100 nM for the first, ≤ 100 nM for the second.

`NC(=O)c1ccc(-c2cnc(N)c(-c3nnnn3-c3cccc(F)c3F)c2)cc1` [I-A-245] and `Nc1ncc(-c2ccc(O)cc2)cc1-c1nnnn1-c1cccc(F)c1F` [I-A-144] cannot be ordered by Ki: ≤ 100 nM for the first, ≤ 100 nM for the second.

`Nc1ncc(-c2ccc3nccnc3c2)cc1-c1nnnn1-c1cccc(F)c1F` [I-A-304] and `Nc1ncc(-c2ccc3ncccc3c2)cc1-c1nnnn1-c1cccc(F)c1F` [I-A-321] cannot be ordered by Ki: 100 to 1000 nM for the first, ≤ 100 nM for the second.

`CC(=O)N1CCC(n2cc(-c3cnc(N)c(-c4nncn4-c4cccc(Cl)c4F)c3)cn2)CC1` [I-A-450] and `CC(=O)N1CCC(n2cc(-c3cnc(N)c(-c4nnnn4-c4cccc(Cl)c4F)c3)cn2)CC1` [I-A-399] cannot be ordered by Ki: ≤ 100 nM for the first, ≤ 100 nM for the second.

`CC(=O)Nc1ccc(-c2cnc(N)c(-c3nnnn3-c3cc(F)cc(F)c3Cl)c2)cc1` [I-A-583] and `CN(C)Cc1ccc(-c2cnc(N)c(-c3nnnn3-c3cc(F)cc(F)c3Cl)c2)cc1` [I-A-605] fall in the same range of Ki: 100 to 1000 nM for the first, 100 to 1000 nM for the second.

`Nc1ncc(-c2ccsc2)cc1-c1nnnn1-c1cccc(F)c1F` [I-A-143] and `Nc1ncc(-c2ccnc(F)c2)cc1-c1nnnn1-c1cccc(F)c1F` [I-A-319] cannot be ordered by Ki: ≤ 100 nM for the first, 100 to 1000 nM for the second.

`Nc1ncc(-c2ccc(NC(=O)N3CCCC3)cc2)cc1-c1nnnn1-c1cccc(F)c1F` [I-A-276] and `Nc1ncc(-c2ccc(NC(=O)CN3CCCC3)cc2)cc1-c1nnnn1-c1cccc(F)c1F` [I-A-184] cannot be ordered by Ki: ≤ 100 nM for the first, ≤ 100 nM for the second.

`CN(C)Cc1ccc(-c2cnc(N)c(-c3nnnn3-c3cccc(F)c3F)c2)cn1` [I-A-154] and `CC(N)c1ccc(-c2cnc(N)c(-c3nnnn3-c3cccc(F)c3F)c2)cn1` (stereo not shown) [I-A-129] cannot be ordered by Ki: 100 to 1000 nM for the first, ≤ 100 nM for the second.

`C[C@@H](C(=O)N1CC=C(c2cnc(N)c(-c3nnnn3-c3cccc(F)c3F)c2)CC1)N1CCCC1=O` [I-A-517] and `CC(C)(C)OC(=O)N1CC=C(c2cnc(N)c(-c3nnnn3-c3cccc(F)c3F)c2)CC1` [I-A-506] cannot be ordered by Ki: 100 to 1000 nM for the first, ≤ 100 nM for the second.

`Nc1ncc(-c2cccnc2)cc1-c1nnnn1-c1cccc(Cl)c1Cl` [I-A-83] and `Nc1ncc(-c2ccncc2)cc1-c1nnnn1-c1cccc(Cl)c1Cl` [I-A-84] fall in the same range of Ki: 100 to 1000 nM for the first, 100 to 1000 nM for the second.

`Nc1ncc(-c2ccc(C3NC(=O)NC3=O)cc2)cc1-c1nnnn1-c1cccc(F)c1F` (stereo not shown) [I-A-257] and `Nc1ncc(-c2ccc(CN3CCCC3=O)cc2)cc1-c1nnnn1-c1cccc(F)c1F` [I-A-203] cannot be ordered by Ki: ≤ 100 nM for the first, ≤ 100 nM for the second.

`Nc1ncc(-c2ccc3[nH]ncc3c2)cc1-c1nnnn1-c1cccc(F)c1F` [I-A-347] and `Cc1cccc(-c2cnc(N)c(-c3nnnn3-c3cccc(F)c3F)c2)c1` [I-A-242] cannot be ordered by Ki: ≤ 100 nM for the first, ≤ 100 nM for the second.

`CN1CCN(Cc2ccc(-c3cnc(N)c(-c4nnnn4-c4cccc(F)c4F)c3)cc2)CC1` [I-A-62, 3-(1-(2,3-Difluorophenyl)-1H-tetrazol-5-yl)-5-(4-((4-methylpiperazin-1-yl)methyl)phenyl)pyridin-2-amine] and `CN1CCN(Cc2ccc(-c3cnc(N)c(-c4nnnn4-c4cccc(F)c4F)n3)cc2)CC1` [I-A-50] cannot be ordered by Ki: ≤ 100 nM for the first, ≤ 100 nM for the second.

`CCNC(=O)Nc1nc2cc(-c3cnc(N)c(-c4nnnn4-c4cccc(F)c4F)c3)c(OC)cc2[nH]1` [I-A-142] and `CNC(=O)Cn1cc(-c2cnc(N)c(-c3nnnn3-c3cccc(F)c3F)c2)cn1` [I-A-369] fall in the same range of Ki: 100 to 1000 nM for the first, 100 to 1000 nM for the second.

`Nc1ncc(-c2cnn(C3CCOCC3)c2)cc1-c1nnnn1-c1cccc(Cl)c1F` [I-A-397] and `COCCN1CCC(n2cc(-c3cnc(N)c(-c4nnnn4-c4cccc(Cl)c4F)c3)cn2)CC1` [I-A-477] cannot be ordered by Ki: ≤ 100 nM for the first, ≤ 100 nM for the second.

`COC(=O)C(c1ccc(-c2cnc(N)c(-c3nnnn3-c3cccc(F)c3F)c2)cc1)N1CCCC1` (stereo not shown) [I-A-208] and `Nc1ncc(-c2ccc(CCN3CCCC3)cc2)cc1-c1nnnn1-c1cccc(F)c1F` [I-A-181] cannot be ordered by Ki: ≤ 100 nM for the first, ≤ 100 nM for the second.

`Nc1ncc(-c2nc3c(s2)CNCC3)cc1-c1nnnn1-c1cccc(Cl)c1Cl` [I-A-467] and `Nc1ncc(-c2ccc(CN3CC[C@@H](O)C3)cc2)cc1-c1nnnn1-c1cccc(Cl)c1Cl` [I-A-119] cannot be ordered by Ki: 100 to 1000 nM for the first, ≤ 100 nM for the second.

`Nc1ncc(-c2cnn(C3CCNCC3)c2)cc1-c1nnnn1-c1c(F)ccc(Cl)c1F` [I-A-382] and `Nc1ncc(-c2cnn([C@@H]3CCCNC3)c2)cc1-c1nnnn1-c1cccc(F)c1F` [I-A-417] cannot be ordered by Ki: ≤ 100 nM for the first, ≤ 100 nM for the second.

`CC(=O)Nc1cccc(-c2cnc(N)c(-c3nnnn3-c3c(F)cccc3Cl)c2)c1` [I-A-612] and `CC(=O)Nc1cccc(-c2cnc(N)c(-c3nnnn3-c3cc(F)ccc3Cl)c2)c1` [I-A-569] fall in the same range of Ki: 100 to 1000 nM for the first, 100 to 1000 nM for the second.

`N#CCC(=O)Nc1ccc(-c2cnc(N)c(-c3nnnn3-c3cccc(F)c3F)c2)cc1` [I-A-334] and `Nc1ncc(-c2ccc(NC(=O)CO)cc2)cc1-c1nnnn1-c1cccc(F)c1F` [I-A-338] cannot be ordered by Ki: ≤ 100 nM for the first, ≤ 100 nM for the second.

`Nc1ncc(C2=CCN(Cc3cccnc3)CC2)cc1-c1nnnn1-c1cccc(F)c1F` [I-A-644] and `Nc1ncc(C2=CCN(C(=O)C3CCCOC3)CC2)cc1-c1nnnn1-c1cccc(F)c1F` (stereo not shown) [I-A-522] cannot be ordered by Ki: 100 to 1000 nM for the first, ≤ 100 nM for the second.

`CN(C)Cc1ccc(-c2cnc(N)c(-c3nn(CCO)cc3-c3cccc(Cl)c3Cl)c2)cc1` [I-B-14] and `CN(C)Cc1ccc(-c2cnc(N)c(-c3nnnn3-c3cccc(Cl)c3)c2)cc1` [I-A-358] fall in the same range of Ki: 100 to 1000 nM for the first, 100 to 1000 nM for the second.

`Nc1ncc(-c2cnn(CCN3CCCC3)c2)cc1-c1nc2cnccc2n1-c1cccc(F)c1F` [I-D-11] and `Nc1ncc(-c2ccc(CN3CCCC3)cc2)cc1-c1nc2cnccc2n1-c1cccc(F)c1F` [I-D-3] cannot be ordered by Ki: ≤ 100 nM for the first, ≤ 100 nM for the second.

`CC(=O)N(C)c1ccc(-c2cnc(N)c(-c3nnnn3-c3cccc(F)c3F)c2)cc1` [I-A-337] and `C[C@H](c1ccc(-c2cnc(N)c(-c3nnnn3-c3cccc(F)c3F)c2)cc1)N(C)C` [I-A-152] cannot be ordered by Ki: ≤ 100 nM for the first, ≤ 100 nM for the second.

`Nc1ncc(-c2ccccc2)cc1-c1nncn1-c1cccc(Cl)c1Cl` [I-A-74] and `Nc1ncc(-c2ccncc2)cc1-c1nncn1-c1cccc(Cl)c1Cl` [I-A-71] fall in the same range of Ki: 100 to 1000 nM for the first, 100 to 1000 nM for the second.

`Nc1ncc(-c2cnn(CC3COCO3)c2)cc1-c1nnnn1-c1cccc(F)c1F` (stereo not shown) [I-A-433] and `CN1CCC(n2cc(-c3cnc(N)c(-c4nnnn4-c4cccc(F)c4F)c3)cn2)CC1` [I-A-434] cannot be ordered by Ki: ≤ 100 nM for the first, ≤ 100 nM for the second.

`CC(c1ccc(-c2cnc(N)c(-c3nnnn3-c3cccc(Cl)c3Cl)c2)cc1)N(C)C` (stereo not shown) [I-A-100] and `CN(C)Cc1ccc(-c2cnc(N)c(-c3nnnn3-c3cc(F)ccc3Cl)c2)cc1` [I-A-592] cannot be ordered by Ki: ≤ 100 nM for the first, 100 to 1000 nM for the second.

`Nc1ncc(-c2cnn([C@@H]3CCNC3)c2)nc1-c1nnnn1-c1cccc(F)c1F` [I-A-660] and `Nc1ncc(-c2ccn(C3CCNCC3)c2)nc1-c1nnnn1-c1cccc(F)c1F` [I-A-534] cannot be ordered by Ki: ≤ 100 nM for the first, ≤ 100 nM for the second.

`CCN(CCO)Cc1ccc(-c2cnc(N)c(-c3nnnn3-c3cccc(F)c3F)c2)cc1` [I-A-146] and `CCCN(CCC)Cc1ccc(-c2cnc(N)c(-c3nnnn3-c3cccc(F)c3F)c2)cc1` [I-A-156] cannot be ordered by Ki: ≤ 100 nM for the first, ≤ 100 nM for the second.

`CN(C)Cc1ccc(-c2cnc(N)c(-c3nnnn3-c3c(F)ccc(Cl)c3F)c2)cc1` [I-A-377] and `CN(C)Cc1ccc(-c2cnc(N)c(-c3nnnn3-c3cc(F)ccc3F)c2)cc1` [I-A-580] cannot be ordered by Ki: ≤ 100 nM for the first, 100 to 1000 nM for the second.

`CC(C)(C)NC(=O)Nc1cccc(-c2cnc(N)c(-c3nnnn3-c3cccc(F)c3F)c2)c1` [I-A-328] and `CC(C)c1cccc(-c2cnc(N)c(-c3nnnn3-c3cccc(F)c3F)c2)c1` [I-A-236] cannot be ordered by Ki: ≤ 100 nM for the first, 100 to 1000 nM for the second.

`CN1C[C@@H]2C[C@H]1CN2c1ccc(-c2cnc(N)c(-c3nncn3-c3cccc(F)c3F)n2)cc1` [I-A-9] and `Nc1ncc(-c2cccnc2)cc1-c1nncn1-c1cccc(F)c1F` [I-A-39] cannot be ordered by Ki: ≤ 100 nM for the first, 100 to 1000 nM for the second.

`Nc1ncc(-c2ccc(N3CCCC3)nc2)cc1-c1nnsc1-c1cccc(Cl)c1Cl` [I-C-4] and `Nc1ncc(-c2ccc(CN3CCCC3)cc2)cc1-c1nnnn1-c1cccc(Cl)c1F` [I-A-343] cannot be ordered by Ki: 100 to 1000 nM for the first, ≤ 100 nM for the second.

`CCCN1CCC(n2cc(-c3cnc(N)c(-c4nnnn4-c4cccc(F)c4F)c3)cn2)CC1` [I-A-461] and `CCCC(=O)Nc1ccc(-c2cnc(N)c(-c3nnnn3-c3cccc(F)c3F)c2)cc1` [I-A-195] cannot be ordered by Ki: ≤ 100 nM for the first, 100 to 1000 nM for the second.

`CC(=O)Nc1cc(-c2cnc(N)c(-c3nnnn3-c3cccc(Cl)c3F)c2)ccc1CN1CCCC1` [I-A-398] and `CC(=O)Nc1cccc(-c2cnc(N)c(-c3nc4cnccc4n3-c3cccc(F)c3F)c2)c1` [I-D-12] cannot be ordered by Ki: ≤ 100 nM for the first, ≤ 100 nM for the second.

`Nc1ncc(-c2cnn(CC(O)CO)c2)cc1-c1nc2cnccc2n1-c1cccc(F)c1F` [I-D-10] and `Nc1ncc(-c2csc(C3CCNCC3)c2)nc1-c1nnnn1-c1cccc(F)c1F` [I-A-654] cannot be ordered by Ki: ≤ 100 nM for the first, 100 to 1000 nM for the second.
